Patent publication US20210369678A1, “BENZIMIDAZOLE DERIVATIVE FOR USE IN THE TREATMENT OF INFLAMMATORY DISORDERS” (Akebia Therapeutics, Inc., priority 2018, published 2021)
“Also recorded” adds a separate entry of the source. Where two headings read alike, the source gives them in different places.

Columns and labels:
[1] = IV/p.o. pharmacokinetic study in monkey; type: in vivo, male cynomolgus monkeys
Experimental: (§1) Intravenous and oral (IV/p.o.) pharmacokinetic (PK) studies in rat, dog and monkey were carried out to facilitate the projection of human PK for Compound 1.
(§2) In the rat studies, Compound 1 was dosed both as a suspension (in 0.5% HPMC) and as a solution in 20% HPPCD. Experiments in the dog and monkey were dosed as a suspension in 0.5% HPMC.

[2] = IV/p.o. pharmacokinetic study in rat; type: in vivo, male Sprague Dawley rats
Experimental: Separate cohorts (n=3) of non-fasted male Sprague Dawley rats were administered Compound 1 at a dose of 1 mg/kg intravenously (IV) via tail vein, 5 mg/kg orally as a solution, or 5 mg/kg orally as a suspension. Blood samples were collected at 0.033 (IV only), 0.083 (IV only), 0.25, 0.5, 1, 2, 4, 8, and 24 hrs post dose after administration. Blood was harvested via the jugular vein catheter. Blood samples were collected into tubes containing K2EDTA and placed on wet ice. The plasma fraction was separated by centrifugation and frozen at −20 to −80 ° C. Concentrations of Compound 1 in plasma were determined using a qualified liquid chromatography-triple quadrupole mass spectrometry. FIG. 2 depicts the plasma concentration of Compound 1 in healthy male SD rats over 24 hours.
as §1, §2

[3] = IV/p.o. pharmacokinetic study in dog; type: in vivo, male beagle dogs; settings: for bioavailability: male, beagle, po, p.o. suspension in 0.5% HPMC
Experimental: as §1, §2

[4] = test system: TNBS-induced colitis; test: Trinitrobenzene sulfonic acid (TNBS)-induced colitis model; type: in vivo, male SJL mice
Experimental: A study was conducted to determine the effects of Compound 1 compared to positive control prednisolone dosed by the oral (p.o.) route in trinitrobenzene sulfonic acid (TNBS)-induced colitis in male SJL mice (FIG. 5). The mice were divided into 5 groups. The mice were fasted for 12 to 16 hours prior to TNBS challenge. On day 0 of the study, mice in groups 2 through 5 were infused intrarectally (IR) with 50 μL TNBS solution (1.5 mg in 50% EtOH/PBS per mouse) to induce colitis. The mice in group 2 were dosed (PO) daily (QD) on days 0 to 3 with vehicle (0.5% HPMC, 0.1% Tween 80 in water). The mice in group 4 were dosed p.o. daily on days 0 to 3 with Compound 1 at 10 mpk, and the mice in group 5 were dosed p.o. daily on days 0 to 3 with Compound 1 at 30 mpk. Prednisone (group 3) was used as a positive control and was dosed p.o., QD on days 0 to 3. Group 1 served as naïve controls. On study day 4, the mice were anesthetized with Isoflurane, bled to exsanguination, and then euthanized for necropsy and tissue collection. Efficacy evaluation was based on animal body weight measurements, colon weights, colon lengths, colon weight per length ratios, histopathology of proximal and distal colons—evaluated as proximal only, distal only, or full colon (proximal and distal). Longitudinal sections of proximal and distal colon were stained with hematoxylin and eosin (H&E). Sections were analyzed using the criteria below and were scored for inflammation, gland loss, and mucosal necrosis. [table] [table] [table] [table] The histopathology sum score was calculated as a sum of inflammation, gland loss, erosion/necrosis (derived from the measure of total length vs. length of mucosal necrosis, i.e., percent), and hyperplasia scores.

[5] = Caco-2 cell monolayer permeability; type: in vitro ADME; settings: human, tested at 10 μM, read-out: apical-to-basolateral apparent permeability Papp
Experimental: In Caco-2 cell monolayers, Compound 1 had low apical-to-basolateral apparent permeability Papp value of <0.2×10^−6 cm/s when tested at 10 μM.

[6] = Plasma drug concentrations after oral and intraperitoneal dosing (LC MS/MS); type: in vivo, male Balb/c mice; settings: male, Balb/c, mouse, read-out: blood levels; for concentration at 1 h: 1 h post dosing; for concentration at 6 h: 6 h post dosing
Experimental: (§3) The effect of both oral (p.o.) and intraperitoneal (i.p.) doses of Compound 1 on systemic EPO in male Balb/c mice was investigated, along with plasma drug concentrations at 1 h and 6 h post dosing. Systemic EPO was measured 6 h post dosing of Compound 1 using a commercially-available MSD assay system, correlated to standard curves. Plasma drug concentrations were quantitated by LC MS/MS. […] FIG. 1 depicts the EPO response to oral (p.o.) and intraperitoneal (i.p.) doses of Compound 1 at 6 h in BalbC mice.

[7] = test system: DSS-induced colitis; test: Dextran sulfate sodium (DSS)-induced colitis model; type: in vivo, mice
Experimental: Colitis was induced in 121 mice by exposure to 3% DSS-treated drinking water from Day 0 to Day 5. Animals were dosed via oral gavage (p.o.) with Compound 1, 6-thioguanine, or vehicle control once a day (q.d.) from Day 6 to 19. Video endoscopy was performed on days 10, 14, and 19. At these time points, colitis severity was assessed in all animals using video endoscopy, where images were taken and colitis severity scored by a blinded observer. During each endoscopy procedure, stool consistency was recorded using a 0-4 scale and an image from each animal was captured at the most severe region of disease that was identified. Following endoscopy on Day 19, all animals for the efficacy component were euthanized with CO2 inhalation. Blood was collected via cardiac puncture and placed in K2EDTA tubes for preparation of plasma. A small whole blood sample was retained for the assessment of hemoglobin and hematocrit while the remaining sample was processed to plasma, then split into two samples and snap frozen. A complete blood count, including hematocrit and hemoglobin levels, was assessed using an automated PCE-90 Vet hematology unit (HTI). FIG. 3 depicts the serum hemoglobin concentration after 14 days of oral dosing Compound 1 in mice with dextran sulfate sodium (DSS)-induced colitis. FIG. 4 depicts Endoscopy Colitis Scores in mice with dextran sulfate sodium (DSS)-induced colitis dosed via oral gavage with Compound 1, 6-thioguanine, or vehicle control once a day after 19 days.

[8] = test system: systemic EPO; test: Systemic EPO response after oral and intraperitoneal dosing (MSD assay); type: in vivo, male Balb/c mice; settings: 6 h post dosing
Experimental: as §3

[9] = 10 and 30 mg/kg p.o. QD days 0 to 3

## O=C(O)c1cnn(-c2nc3cc(S(=O)(=O)c4ccccc4)c(Cl)cc3[nH]2)c1 [Compound 1, 1-(6-chloro-5-(phenylsulfonyl)-1H-benzo[d]imidazol-2-yl)-1H-pyrazole-4-carboxylic acid]
[1]
  estimated fa*fg (fa: fraction absorbed; fg: fraction that escapes gut metabolism): ≤ 0.12
  terminal t1/2: short
[1]; male, cynomolgus monkey, plasma, po, p.o. suspension in 0.5% HPMC
  bioavailability: ≤ 5%
[2]
  estimated fa*fg (fa: fraction absorbed; fg: fraction that escapes gut metabolism): ≤ 0.12
  terminal t1/2: short
[2]; male, Sprague-Dawley, plasma, po, 5 mg/kg, p.o. dosing
  bioavailability: ≤ 5%
[3]
  estimated fa*fg (fa: fraction absorbed; fg: fraction that escapes gut metabolism): ≤ 0.12
  terminal t1/2: short
[3]; in vivo
  bioavailability: ≤ 5%
[3]; plasma
  bioavailability: < 5%
[4]; [9]
  body weight loss: statistically significant inhibition of body weight loss; also recorded: protects against body weight loss
  colon histopathology: improvements in colon histopathology
  colon weight/length ratio: decreased colon weight/length ratios; also recorded: improves colon weight/length ratio
[4]; 10 or 30 mpk p.o. QD days 0 to 3
  full-colon and proximal-colon histopathology: significant beneficial effects
[4]; p.o. QD days 0 to 3
  histopathology inflammation score: improves the histopathology inflammation score
  histopathology summed score: improves the histopathology summed score
[4]; p.o. dosing
  efficacy in mouse model of inflammatory bowel disease: excellent efficacy
[5]
  Papp A→B at 10 μM: < 0.2 ×10⁻⁶ cm/s
[6]; ip, 100 umol/kg i.p.
  concentration at 1 h: 42200 nM
  concentration at 6 h: 5100 nM
[6]; po, 100 umol/kg p.o.
  concentration at 1 h: 100 nM
  concentration at 6 h: 20 nM
[7]; p.o. dosing
  efficacy in mouse model of inflammatory bowel disease: excellent efficacy
[7]; p.o. dosing, mouse models of inflammatory bowel disease
  systemic pharmacology resulting in increases in EPO/hematocrit: no systemic pharmacology resulting in increases in EPO/hematocrit was observed
[7]; p.o. q.d. Day 6 to 19, 3% DSS Day 0 to 5
  Endoscopic Colitis Scores: effective at ameliorating DSS induced colitis
[8]; 100 umol/kg i.p.
  EPO stimulation: 34 fold above vehicle control
[8]; 100 umol/kg p.o.
  EPO stimulation: no EPO stimulation
